Reference: patent US20240150377A1, “MODULATORS OF CYSTIC FIBROSIS TRANSMEMBRANE CONDUCTANCE REGULATOR” (VERTEX PHARMACEUTICALS INCORPORATED, priority 2020, published 2024)
Where two headings read alike, the source gives them in different places. Blank lines part the entries; values can stand above or below the compound they belong to.

Target: T1, CFTR (Homo sapiens, UniProt P13569, DEL508-508)
T1 construct: endogenous in cells; host or cells: primary human bronchial epithelial cells from CF subjects (F508del/MF-HBE), differentiated at air-liquid interface
Assay: HBE assay: Ussing chamber assay of CFTR-mediated short-circuit currents
Type: cell-based
Conditions: for EC50: read-out: HBE EC50
Method in brief: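 CFTR-mediated Isc (μA/cm²) equals the peak response to apical 20 μM forskolin minus the residual after a 20 μM each BPO/GlyH-101/CFTR inhibitor 172 cocktail, recorded in Ussing chambers at Vhold 0 mV, 37 °C, pH 7.4, with 30 μM apical amiloride. Cells were F508del/MF HBE cultures preincubated 18-24 h with corrector (concentration range or 10 μM) plus 1 μM ivacaftor in 20% human serum.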

[1] = Table 13, read-out: HBE Activity at 10 μM (%)
[2] = Table 12, read-out: HBE Activity at 10 μM (%)
[3] = Table 13, read-out: HBE Max Activity (%)
[4] = Table 12, read-out: HBE Max Activity (%)
[5] = HBE assay, read-out: HBE Max activity (%)
[6] = Table 10, read-out: HBE activity at 10 (μM) (%)
[7] = Table 10, read-out: HBE Max activity (%)
[8] = Table 11, read-out: HBE Max Activity (%)

T1 sequence (P13569 with tags, fused parts or gaps DEL508-508): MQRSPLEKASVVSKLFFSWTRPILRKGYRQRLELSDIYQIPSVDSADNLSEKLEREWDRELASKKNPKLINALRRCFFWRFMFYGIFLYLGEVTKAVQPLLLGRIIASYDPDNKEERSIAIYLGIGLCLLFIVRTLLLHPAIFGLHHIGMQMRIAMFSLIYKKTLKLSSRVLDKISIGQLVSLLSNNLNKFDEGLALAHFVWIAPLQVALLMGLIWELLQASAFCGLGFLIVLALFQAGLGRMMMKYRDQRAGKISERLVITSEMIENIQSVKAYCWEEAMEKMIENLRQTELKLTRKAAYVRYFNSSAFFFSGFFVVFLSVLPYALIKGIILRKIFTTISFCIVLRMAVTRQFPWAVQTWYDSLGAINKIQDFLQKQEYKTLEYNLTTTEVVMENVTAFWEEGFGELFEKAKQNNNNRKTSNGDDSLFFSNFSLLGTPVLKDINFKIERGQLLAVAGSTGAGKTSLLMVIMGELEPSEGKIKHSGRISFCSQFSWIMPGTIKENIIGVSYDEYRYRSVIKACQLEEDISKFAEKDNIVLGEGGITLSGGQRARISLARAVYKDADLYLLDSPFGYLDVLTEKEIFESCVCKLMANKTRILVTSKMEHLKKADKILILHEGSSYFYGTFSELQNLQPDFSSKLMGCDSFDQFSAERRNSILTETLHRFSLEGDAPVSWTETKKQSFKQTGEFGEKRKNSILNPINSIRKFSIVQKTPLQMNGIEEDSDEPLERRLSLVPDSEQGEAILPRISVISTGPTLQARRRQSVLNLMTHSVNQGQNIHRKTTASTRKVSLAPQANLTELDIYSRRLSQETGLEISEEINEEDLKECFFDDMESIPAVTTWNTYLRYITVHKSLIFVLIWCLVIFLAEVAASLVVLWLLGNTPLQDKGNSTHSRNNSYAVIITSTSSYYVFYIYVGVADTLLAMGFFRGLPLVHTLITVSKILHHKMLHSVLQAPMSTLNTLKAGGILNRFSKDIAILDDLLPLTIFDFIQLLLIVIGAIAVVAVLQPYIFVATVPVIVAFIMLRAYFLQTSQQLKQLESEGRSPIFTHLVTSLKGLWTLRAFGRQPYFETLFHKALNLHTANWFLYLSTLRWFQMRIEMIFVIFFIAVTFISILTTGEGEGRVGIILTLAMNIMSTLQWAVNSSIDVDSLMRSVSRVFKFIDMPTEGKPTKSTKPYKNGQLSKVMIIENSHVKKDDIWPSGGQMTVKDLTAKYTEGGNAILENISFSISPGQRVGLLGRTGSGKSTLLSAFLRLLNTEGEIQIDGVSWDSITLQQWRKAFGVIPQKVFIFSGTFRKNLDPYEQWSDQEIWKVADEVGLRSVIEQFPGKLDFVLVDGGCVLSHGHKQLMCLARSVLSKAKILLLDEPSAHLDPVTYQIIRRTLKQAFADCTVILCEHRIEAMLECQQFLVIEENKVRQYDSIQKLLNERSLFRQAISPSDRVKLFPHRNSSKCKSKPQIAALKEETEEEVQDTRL

EC50 (Table 10): < 1 µM
Compound: Cc1cccc(C)c1-c1cc2nc(n1)NS(=O)(=O)c1cccc(c1)C(=O)N(CC1CCC(O)(C(F)(F)F)CC1)[C@H](CC(C)(C)C)CO2 (stereo partly drawn) [Compound 904]

EC50 (Table 13): < 1 µM | Emax [3]: > 60%
Compound: Cc1cccc(C)c1-c1cc2nc(n1)NS(=O)(=O)c1cccc(c1)C(=O)N(Cc1ncc(N3CCOC4(CC4)C3)cn1)[C@H](CC(C)(C)C)CO2 [Compound 1148]

EC50 (HBE assay): < 1 µM | Emax [5]: > 60%
Compound: COCCOc1cnc(CN2C(=O)c3cccc(c3)S(=O)(=O)Nc3nc(cc(-c4c(C)cccc4C)n3)OC[C@H]2CC(C)(C)C)c(F)c1 [Compound 1364]

activation at 10 µM [1]: > 600%
Compound: Cc1cccc(C)c1-c1cc2nc(n1)NS(=O)(=O)c1cccc(c1)C(=O)N(Cc1cccc(Br)n1)[C@H](CC(C)(C)C)CO2 [Compound 992]

EC50 (Table 13): < 1 µM | Emax [3]: > 60%
Compound: COc1cnc(CN2C(=O)c3cccc(c3)S(=O)(=O)Nc3nc(cc(-c4c(C)cccc4C)n3)OC[C@H]2CC(C)(C)C)c(F)c1 [Compound 1112]

EC50 (HBE assay): < 1 µM | Emax [5]: > 60%
Compound: Cc1cccc(C)c1-c1cc2nc(n1)NS(=O)(=O)c1cccc(c1)C(=O)N(Cc1ncc(OC3CC(C)(C)C3)cn1)[C@H](CC(C)(C)C)CO2 [Compound 1422]

Emax [7]: > 60%
Compound: Cc1cccc(C)c1-c1cc2nc(n1)NS(=O)(=O)c1cccc(c1)C(=O)N(CC1CCCCO1)[C@H](CC(C)(C)C)CO2 (stereo partly drawn) [Compound 833]

EC50 (Table 13): < 1 µM | Emax [3]: > 60%
Compound: Cc1cccc(C)c1-c1cc2nc(n1)NS(=O)(=O)c1cccc(c1)C(=O)N(Cc1ncc(N3CC4(C3)CC(C)(C)C4)cn1)[C@H](CC(C)(C)C)CO2 [Compound 869]

EC50 (Table 12): < 1 µM | Emax [4]: > 60%
Compound: Cc1cccc(C)c1-c1cc2nc(n1)NS(=O)(=O)c1cccc(c1)C(=O)N(Cc1cccc(N3CCOC(C)(C)C3)n1)[C@H](CC(C)(C)C)CO2 [Compound 872]

EC50 (HBE assay): < 1 µM | Emax [5]: > 60%
Compound: COCCN(C)c1cnc(CN2C(=O)c3cccc(c3)S(=O)(=O)Nc3nc(cc(-c4c(C)cccc4C)n3)OC[C@H]2CC(C)(C)C)c(C)c1 [Compound 1381]

EC50 (Table 10): < 1 µM | Emax [7]: > 60%
Compound: Cc1cccc(C)c1-c1cc2nc(n1)NS(=O)(=O)c1cccc(c1)C(=O)N(Cc1ccccc1OCC(C)(C)OO)[C@H](CC(C)(C)C)CO2 [Compound 781]

activation at 10 µM [6]: > 60%
Compound: COc1ccc2nc3c(cc2c1)CN1C(O3)c2cccc(c2)S(=O)(=O)Nc2nc(cc(-c3c(C)cccc3C)n2)OC[C@H]1CC(C)(C)C (stereo partly drawn) [Compound 754]

EC50 (Table 13): < 1 µM | Emax [3]: > 60%
Compound: Cc1cccc(C)c1-c1cc2nc(n1)NS(=O)(=O)c1cccc(c1)C(=O)N(Cc1cccc(C(=O)N3CCC(C)(C)C3)n1)[C@H](CC(C)(C)C)CO2 [Compound 1138]

EC50 (HBE assay): 1 to 3 µM | Emax [5]: > 60%
Compound: Cc1cccc(C)c1-c1cc2nc(n1)NS(=O)(=O)c1cccc(c1)C(=O)N(Cc1cccc(N(CC3CCCO3)C(C)C)n1)[C@H](CC(C)(C)C)CO2 (stereo partly drawn) [Compound 1445]

activation at 10 µM [2]: > 600%
Compound: Cc1cccc(C)c1-c1cc2nc(n1)NS(=O)(=O)c1cccc(c1)C(=O)N(Cc1ccc3nc(NC(=O)CC(C)C)sc3c1)[C@H](CC(C)(C)C)CO2 [Compound 697]

EC50 (HBE assay): < 1 µM | Emax [5]: > 60%
Compound: Cc1cccc(C)c1-c1cc2nc(n1)NS(=O)(=O)c1cccc(c1)C(=O)N(Cc1cncc(N3CCCC3C)n1)[C@H](CC(C)(C)C)CO2 (stereo in doubt) [Compound 1366]

EC50 (HBE assay): < 1 µM | Emax [5]: > 60%
Compound: CCOc1cnc(CN2C(=O)c3cccc(c3)S(=O)(=O)Nc3nc(cc(-c4c(C)cccc4C)n3)OC[C@H]2CC(C)(C)C(F)(F)F)nc1 [Compound 1489]

EC50 (HBE assay): < 1 µM | Emax [5]: > 60%
Compound: Cc1cccc(C)c1-c1cc2nc(n1)NS(=O)(=O)c1cccc(c1)C(=O)N(Cc1ncc(N3CC[C@](C)(F)C3)cn1)[C@H](CC(C)(C)C)CO2 [Compound 1440]

EC50 (HBE assay): < 1 µM | Emax [5]: > 60%
Compound: Cc1cccc(C)c1-c1cc2nc(n1)NS(=O)(=O)c1cccc(c1)C(=O)N(Cc1ncc(OC3CCCC3)cn1)[C@H](CC1CC1)CO2 [Compound 1463]

EC50 (HBE assay): < 1 µM | Emax [5]: > 60%
Compound: CCN(C)c1ccnc(CN2C(=O)c3cccc(c3)S(=O)(=O)Nc3nc(cc(-c4c(C)cccc4C)n3)OC[C@H]2CC(C)(C)C)n1 [Compound 1357]

EC50 (Table 11): < 1 µM | Emax [8]: > 60%
Compound: CCc1cccc(CN2C(=O)c3cccc(c3)S(=O)(=O)Nc3nc(cc(-c4c(C)cccc4C)n3)OC[C@H]2CC(C)(C)C)n1 [Compound 730]

EC50 (Table 13): < 1 µM | Emax [3]: > 60%
Compound: Cc1cccc(C)c1-c1cc2nc(n1)NS(=O)(=O)c1cccc(c1)C(=O)N(Cc1ncc(N3CC4(CCOC4)C3)cn1)[C@H](CC(C)(C)C)CO2 [Compound 1054]

EC50 (Table 13): < 1 µM | Emax [3]: > 60%
Compound: Cc1cccc(C)c1-c1cc2nc(n1)NS(=O)(=O)c1cccc(n1)C(=O)N(Cc1cccc(N3CCCC3C)n1)[C@H](CC(C)(C)C)CO2 (stereo partly drawn) [Compound 1127]

EC50 (Table 10): < 1 µM | Emax [7]: > 60%
Compound: Cc1cccc(C)c1-c1cc2nc(n1)NS(=O)(=O)c1cccc(c1)C(=O)N(CC1CCC(O)(CO)CC1)[C@H](CC(C)(C)C)CO2 (stereo partly drawn) [Compound 908]

activation at 10 µM [2]: > 600%
Compound: Cc1cccc(C)c1-c1cc2nc(n1)NS(=O)(=O)c1cccc(c1)C(=O)N(CC1CC3(C1)CC(NC(=O)OC(C)(C)C)C3)[C@H](CC(C)C)CO2 (stereo partly drawn) [Compound 1004]

activation at 10 µM [2]: > 600%
Compound: Cc1cccc(C)c1-c1cc2nc(n1)NS(=O)(=O)c1cccc(c1)C(=O)N(Cc1ccc(OC(C)C)nc1)[C@H](CC(C)(C)C)CO2 [Compound 880]

The next lines start with the compound.

Compound: Cc1cccc(C)c1-c1cc2nc(n1)NS(=O)(=O)c1cccc(c1)C(=O)N(CC(=O)N1CCN(C(C)C)CC1)[C@H](CC(C)(C)C)CO2 [Compound 187]
activation at 10 µM [1]: > 600%

Compound: Cc1cccc(C)c1-c1cc2nc(n1)NS(=O)(=O)c1cccc(c1)C(=O)N(CC(=O)N(C)CC1CCOCC1)[C@H](CC(C)(C)C)CO2 [Compound 223]
activation at 10 µM [1]: > 600%

Compound: CC(C)=C(C)c1cccc(CN2C(=O)c3cccc(c3)S(=O)(=O)Nc3nc(cc(-c4c(C)cccc4C)n3)OC[C@H]2CC(C)(C)C)n1 [Compound 577]
activation at 10 µM [2]: > 600%

Compound: Cc1cccc(C)c1-c1cc2cc(n1)NS(=O)(=O)c1cccc(c1)C(=O)N(Cc1cccc(N3CCC[C@H]3C)n1)[C@H](CC(C)(C)C)CO2 [Compound 526]
EC50 (Table 12): < 1 µM | Emax [4]: > 60%

Compound: Cc1cccc(C)c1-c1cc2nc(n1)NS(=O)(=O)c1cccc(c1)C(=O)N(Cc1ccnc(C(C)C)n1)[C@H](CC(C)(C)C)CO2 [Compound 584]
EC50 (Table 12): < 1 µM | Emax [4]: > 60%

Compound: Cc1cccc(C)c1-c1cc2nc(n1)NS(=O)(=O)c1cccc(c1)C(=O)N(Cc1nc(C(C)C)cn1COCC[Si](C)(C)C)[C@H](CC(C)(C)C)CO2 [Compound 265]
activation at 10 µM [2]: > 600%

Compound: Cc1cccc(C)c1-c1cc2nc(n1)NS(=O)(=O)c1cccc(c1)C(=O)N(CC(=O)N1CCCCC1c1ccc(F)cc1)[C@H](CC(C)(C)C)CO2 (stereo partly drawn) [Compound 177]
activation at 10 µM [1]: > 600%

Compound: Cc1cccc(C)c1-c1cc2nc(n1)NS(=O)(=O)c1cccc(c1)C(=O)N(Cc1cccc(-c3c[nH]nc3C)c1)[C@H](CC(C)(C)C)CO2 [Compound 312]
activation at 10 µM [6]: > 60%

Compound: Cc1cccc(C)c1-c1cc2nc(n1)NS(=O)(=O)c1cccc(c1)C(=O)N(Cc1nccc(N(C)C3CC(C)(C)C3)n1)[C@H](CC(C)(C)C)CO2 [Compound 436]
EC50 (Table 13): < 1 µM | Emax [3]: > 60%

Compound: Cc1cccc(C)c1-c1cc2nc(n1)NS(=O)(=O)c1cccc(c1)C(=O)N(CC(=O)N1CCOCC1(C)C)[C@H](CC(C)(C)C)CO2 [Compound 214]
activation at 10 µM [1]: > 600%

Compound: COc1cccc(C)c1-c1cc2nc(n1)NS(=O)(=O)c1cccc(c1)C(=O)N(Cc1cncc(N(C)CC(C)(C)C)n1)[C@H](CC(C)(C)C)CO2 [Compound 544]
activation at 10 µM [2]: > 600%

Compound: Cc1cccc(C)c1-c1cc2nc(n1)NS(=O)(=O)c1cccc(c1)C(=O)N(Cc1ncc(OC3CCC3)cc1Cl)[C@H](CC(C)(C)C)CO2 [Compound 690]
EC50 (Table 13): < 1 µM | Emax [3]: > 60%

Compound: Cc1cccc(C)c1-c1cc2nc(n1)NS(=O)(=O)c1cccc(c1)C(=O)N(Cc1ccc(-c3ccccc3)cn1)[C@H](CC(C)(C)C)CO2 [Compound 476]
HBE Max activity (%) (Table 10): +++ (+++ is >60%) | EC50 (Table 10): 1 to 3 µM

Compound: Cc1cccc(C)c1-c1cc2nc(n1)NS(=O)(=O)c1cccc(c1)C(=O)N(Cc1cccc(C3CCCCO3)n1)[C@H](CC(C)(C)C)CO2 (stereo partly drawn) [Compound 603]
EC50 (Table 11): < 1 µM | Emax [8]: > 60%

Compound: Cc1cccc(C)c1-c1cc2nc(n1)NS(=O)(=O)c1cccc(c1)C(=O)N(CC1CCN(CCC(C)(C)C)C1=O)[C@H](CC(C)(C)C)CO2 (stereo partly drawn) [Compound 652]
activation at 10 µM (Table 11, read-out: HBE Activity at 10 μM (%)): > 60% | EC50 (Table 11): < 1 µM | Emax [8]: > 60%

Compound: COc1cnc(CN2C(=O)c3cccc(c3)S(=O)(=O)Nc3nc(cc(-c4c(C)cccc4C)n3)OC[C@H]2CC(C)(C)C)nc1C [Compound 611]
EC50 (Table 11): < 1 µM | Emax [8]: > 60%

Compound: Cc1cccc(C)c1-c1cc2nc(n1)NS(=O)(=O)c1cccc(c1)C(=O)N(Cc1ccc(N3CCCCC3)cn1)[C@H](CC(C)(C)C)CO2 [Compound 502]
EC50 (Table 10): < 1 µM | Emax [7]: > 60%

Compound: Cc1cccc(C)c1-c1cc2nc(n1)NS(=O)(=O)c1cccc(c1)C(=O)N(Cc1ncc(N3CCC[C@@H]3C)cn1)[C@H](CC(C)(C)C)CO2 [Compound 569]
EC50 (Table 12): < 1 µM | Emax [4]: > 60%

Compound: Cc1cccnc1-c1cccc(CN2C(=O)c3cccc(c3)S(=O)(=O)Nc3nc(cc(-c4c(C)cccc4C)n3)OC[C@H]2CC(C)(C)C)n1 [Compound 591]
activation at 10 µM [2]: > 600%
